Data from publication PMC10510154 (ACS Chemical Biology, 2023).

Assays:
OTUD3 = biological target: T1, OTUD3 (Homo sapiens, UniProt Q5T2D3); assay: In vitro DUB selectivity panel, ubiquitin substrate cleavage assay; format: biochemical
T1 construct: OTUD3 FL (1-398) GST, cleaved Q5T2D3; GST (cleaved yes); purchased Ubiquigent DUBscan Kit 67-0006-001
T1 sequence (Q5T2D3 1-398): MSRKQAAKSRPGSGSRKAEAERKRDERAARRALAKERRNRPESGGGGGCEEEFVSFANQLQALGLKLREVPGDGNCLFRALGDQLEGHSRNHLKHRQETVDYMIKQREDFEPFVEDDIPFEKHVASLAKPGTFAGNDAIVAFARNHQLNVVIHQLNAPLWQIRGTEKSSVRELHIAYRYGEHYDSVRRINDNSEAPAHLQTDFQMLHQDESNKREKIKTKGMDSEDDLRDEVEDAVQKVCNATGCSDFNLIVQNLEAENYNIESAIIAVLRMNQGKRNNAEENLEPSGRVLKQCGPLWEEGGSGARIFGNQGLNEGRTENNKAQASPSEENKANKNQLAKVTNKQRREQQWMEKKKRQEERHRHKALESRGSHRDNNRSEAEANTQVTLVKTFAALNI
Procedure: (§1) After having determined the (1S,2S) configuration as the preferred stereoisomer, we turned our attention to the aromatic ring substituents to further improve the compound potency. Applying the same chemo-enzymatic strategy described above, a panel of aryl substituted trans (1S,2S) cyclopropane compounds 7–10 were generated having a methyl (7–9) or fluorine (10) substituent at different positions on the aromatic ring. The compounds were tested for their OTUB2 inhibitory potency using the assay as described above (Table 1, Figure S1A). […] Since these compounds are all covalent, irreversible inhibitors,[15] the IC50 depends on the incubation time. To get a better estimate of their respective inhibitory capacity, independent of incubation time, we determined the kinact/KI values of compounds 5–10 by pre-mixing the compounds with the substrate before adding OTUB2. […] The in vitro selectivity of LN5P45 for OTUB2 was assessed using a panel containing six DUBs from the OTU family, including its closest family members OTUB1, OTUD1, OTUD2, OTUD3, OTUD6B, and Cezanne, and two DUBs from outside this family, UCHL1 and USP16 (Figure S2, Table S1).
(§2) The assays were performed in “nonbinding surface flat bottom low flange” black 384-well plates (Corning 3820) at room temperature in a buffer containing 50 mM Tris·HCl, 100 mM NaCl, pH 7.6, 2.0 mM cysteine, 1 mg/mL 3-[(3-cholamidopropyl)-dimethylammonio]propanesulfonic acid (CHAPS), and 0.5 mg/mL γ-globulins from bovine blood (BGG). All dispensing steps involving buffered solutions were performed on a Biotek MultiFlowFX dispenser. […] The compounds were dissolved in 10 mM and 1 mM DMSO stock solutions, and appropriate volumes were transferred to the empty plates using a Labcyte Echo acoustic dispenser to obtain a 12-point serial dilution. […] A 3 μL portion of the substrate (UbRhoMP, or K48-linked diUb FRET pair[35] for OTUB1) was added (final concentration 500 nM), and the increase in fluorescence over time was recorded using a BMG Labtech PHERAstar plate reader (excitation 487 nm, emission 535 nm).

UCHL1 = biological target: T2, UCHL1 (Homo sapiens, UniProt P09936); assay: as above; format: biochemical; conditions: marginal inhibition
T2 construct: UCHL1 FL (1-223); made in house
T2 sequence (P09936 1-223): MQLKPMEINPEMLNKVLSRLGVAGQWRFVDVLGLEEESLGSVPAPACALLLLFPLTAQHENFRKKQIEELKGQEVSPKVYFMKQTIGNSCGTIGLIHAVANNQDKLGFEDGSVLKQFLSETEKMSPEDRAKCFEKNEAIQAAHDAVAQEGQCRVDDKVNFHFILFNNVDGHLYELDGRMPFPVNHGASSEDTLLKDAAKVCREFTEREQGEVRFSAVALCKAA
Procedure: as §1, §2

USP16 = biological target: T3, USP16 (Homo sapiens, UniProt Q9Y5T5); assay: as above; format: biochemical; conditions: marginal inhibition
T3 construct: USP16 FL (22-823); His-tag (N); made in house
Procedure: as §1, §2

[1] = tested on: OTUB1, OTUD1, OTUD2, OTUD3, OTUD6B, Cezanne, UCHL1 and USP16; assay: In vitro DUB selectivity panel, ubiquitin substrate cleavage assay (whole panel); format: biochemical, human; conditions: at concentrations up to 150 μM
Procedure: as §1, with “S1). […]” for “S1).”

[2] = tested on: reactive cysteine sites in HeLa cells expressing GFP or GFP-OTUB2; assay: SLC-ABPP profiling of LN5P45-reactive cysteines with DBIA probe; format: cell-based, Homo sapiens; conditions: 10 μM for 4 h, 10,670 cysteine peptides detected
Procedure: Reduced disulfide bonds were alkylated using 20 mM iodoacetamide for 30 min in the dark at RT.

T3 sequence (Q9Y5T5 22-823): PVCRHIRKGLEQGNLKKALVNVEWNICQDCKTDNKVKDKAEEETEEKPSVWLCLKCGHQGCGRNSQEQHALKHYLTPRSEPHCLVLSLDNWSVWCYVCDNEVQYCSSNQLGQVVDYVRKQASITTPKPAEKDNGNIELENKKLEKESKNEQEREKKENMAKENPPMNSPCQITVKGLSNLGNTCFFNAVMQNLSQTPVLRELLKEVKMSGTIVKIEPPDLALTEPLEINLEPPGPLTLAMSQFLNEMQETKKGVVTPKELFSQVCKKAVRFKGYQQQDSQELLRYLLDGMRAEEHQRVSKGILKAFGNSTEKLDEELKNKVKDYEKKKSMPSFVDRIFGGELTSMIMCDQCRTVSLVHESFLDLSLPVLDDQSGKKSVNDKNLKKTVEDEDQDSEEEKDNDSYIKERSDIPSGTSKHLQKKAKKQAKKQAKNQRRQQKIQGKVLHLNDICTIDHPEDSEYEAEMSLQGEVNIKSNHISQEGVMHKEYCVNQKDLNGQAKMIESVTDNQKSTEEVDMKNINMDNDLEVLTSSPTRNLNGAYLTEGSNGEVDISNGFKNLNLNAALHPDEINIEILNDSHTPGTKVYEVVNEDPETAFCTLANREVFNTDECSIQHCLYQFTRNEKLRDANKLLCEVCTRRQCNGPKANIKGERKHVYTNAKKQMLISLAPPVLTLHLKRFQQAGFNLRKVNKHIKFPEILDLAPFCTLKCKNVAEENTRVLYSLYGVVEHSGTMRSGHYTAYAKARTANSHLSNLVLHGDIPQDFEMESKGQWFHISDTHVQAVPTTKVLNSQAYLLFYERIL

In the case of `Cc1cccc([C@H]2C[C@@H]2C(=O)NNC(=O)CCl)c1` [Compound 8], the IC50 (OTUD3) is reported as 56 µM, the IC50 (UCHL1) is reported as over 100 µM and the IC50 (USP16) is reported as over 100 µM. The “Inhibition of most DUBs of the panel” value [1] was “not inhibited” and the “Number of proteins not involved in ubiquitination with inhibited DBIA probe binding” value [2] was “seven”.
